Our source for the DC50 values is ChEMBL document CHEMBL4706737, “PROTAC-Mediated Degradation of Bruton's Tyrosine Kinase as a Therapeutic Strategy for Cancer” (ACS Med Chem Lett, 2021).

SMILES strings stand for the structures.

What is called DC50 is the concentration giving 50% degradation.

The target in the assay is Protein cereblon/Tyrosine-protein kinase BTK (Homo sapiens, UniProt Q06187+Q96SW2). The assay is described as follows: Protac activity at E3 ubiquitin ligase/BTK in human Ramos cells assessed as induction of BTK degradation measured after 16 hrs by ELISA. It counts as cell-based.
Protein cereblon/Tyrosine-protein kinase BTK, sequence (Q06187 whole entry): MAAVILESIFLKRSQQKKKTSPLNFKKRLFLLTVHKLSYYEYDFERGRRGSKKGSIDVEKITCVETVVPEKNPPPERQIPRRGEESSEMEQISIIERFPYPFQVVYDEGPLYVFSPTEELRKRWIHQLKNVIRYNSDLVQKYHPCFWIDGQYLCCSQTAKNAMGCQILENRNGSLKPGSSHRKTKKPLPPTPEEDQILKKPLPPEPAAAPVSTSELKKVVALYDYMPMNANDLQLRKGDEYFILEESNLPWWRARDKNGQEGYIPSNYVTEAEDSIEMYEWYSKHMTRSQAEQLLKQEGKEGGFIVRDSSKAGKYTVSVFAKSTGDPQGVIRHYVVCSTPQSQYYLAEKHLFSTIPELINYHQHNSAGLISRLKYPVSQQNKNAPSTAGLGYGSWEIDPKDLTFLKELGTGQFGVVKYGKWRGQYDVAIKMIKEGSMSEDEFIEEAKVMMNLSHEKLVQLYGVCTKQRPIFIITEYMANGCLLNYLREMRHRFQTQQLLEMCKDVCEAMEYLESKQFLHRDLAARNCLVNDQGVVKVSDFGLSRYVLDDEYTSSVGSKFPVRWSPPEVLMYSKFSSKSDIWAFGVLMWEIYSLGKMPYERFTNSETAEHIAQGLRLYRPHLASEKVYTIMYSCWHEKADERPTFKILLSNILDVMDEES
Protein cereblon/Tyrosine-protein kinase BTK, sequence (Q96SW2 whole entry): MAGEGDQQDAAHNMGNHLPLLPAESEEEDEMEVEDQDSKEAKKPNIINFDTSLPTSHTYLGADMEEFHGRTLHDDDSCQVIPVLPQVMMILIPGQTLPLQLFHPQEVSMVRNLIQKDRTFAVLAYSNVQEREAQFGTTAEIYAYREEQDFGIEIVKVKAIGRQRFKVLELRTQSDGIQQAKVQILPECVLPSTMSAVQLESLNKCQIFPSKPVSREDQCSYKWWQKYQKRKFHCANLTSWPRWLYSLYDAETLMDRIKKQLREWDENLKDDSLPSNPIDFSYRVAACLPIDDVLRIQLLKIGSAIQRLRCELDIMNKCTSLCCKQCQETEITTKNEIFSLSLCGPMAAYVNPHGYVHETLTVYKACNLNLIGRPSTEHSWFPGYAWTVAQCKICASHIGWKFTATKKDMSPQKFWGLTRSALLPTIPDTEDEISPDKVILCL
In the case of `NC(=O)c1c(-c2ccc(Oc3ccccc3)cc2)nn2c1NCC[C@H]2C1CCN(C(=O)c2cn(CCOCCOCCOCCOCCNc3cccc4c3C(=O)N(C3CCC(=O)NC3=O)C4=O)nn2)CC1` (some centres not stated), the DC50 is 68 nM.

Regarding `CN(CC1CCN(C(=O)c2ccc(N3CCC(=O)NC3=O)cc2)CC1)C1CC(C(=O)N2CCC([C@@H]3CCNc4c(C(N)=O)c(-c5ccc(Oc6ccccc6)cc5)nn43)CC2)C1` (some centres not stated), the DC50 was 7.2 nM.

As to `CN(CCC(=O)N1CCC([C@@H]2CCNc3c(C(N)=O)c(-c4ccc(Oc5ccccc5)cc4)nn32)CC1)CC1CCN(c2ccc3c(c2)C(=O)N(C2CCC(=O)NC2=O)C3=O)CC1` (some centres not stated), the half-maximal degradation concentration (DC50) worked out at 35 nM.

Consider `NC(=O)c1c(-c2ccc(Oc3ccccc3)cc2)nn2c1NCC[C@H]2C1CCN(C(=O)c2cn(CCOCCOCCOCCOCCOCCOCCNc3cccc4c3C(=O)N(C3CCC(=O)NC3=O)C4=O)nn2)CC1` (some centres not stated), for which the DC50 is 107 nM.

Consider `NC(=O)c1c(-c2ccc(Oc3ccccc3)cc2)nn2c1NCC[C@H]2C1CCN(C(=O)CCCc2ccc(NC(=O)CNc3ccc4c(c3)C(=O)N(C3CCC(=O)NC3=O)C4=O)cc2)CC1` (some centres not stated), for which the DC50 is 28 nM.

For the compound `NC(=O)c1c(-c2ccc(Oc3ccccc3)cc2)nn2c1NCC[C@H]2C1CCN(C(=O)c2cn(CCOCCOCCOCCOCCOCCNc3ccc4c(c3)C(=O)N(C3CCC(=O)NC3=O)C4=O)nn2)CC1` (some centres not stated), the 50% degradation concentration (DC50) came to 78 nM.

For the compound `NC(=O)c1c(-c2ccc(Oc3ccccc3)cc2)nn2c1NCC[C@H]2C1CCN(C(=O)CCCN2CCN(C(=O)CNc3ccc4c(c3)C(=O)N(C3CCC(=O)NC3=O)C4=O)CC2)CC1` (some centres not stated), the 50% degradation concentration (DC50) came out at 35 nM.

Turning to `NC(=O)c1c(-c2ccc(Oc3ccccc3)cc2)nn2c1NCC[C@H]2C1CCN(C(=O)CCc2ccc(N3CCN(c4ccc5c(c4)C(=O)N(C4CCC(=O)NC4=O)C5=O)CC3)cc2)CC1` (some centres not stated), the DC50 was 74 nM.

Take `NC(=O)c1c(-c2ccc(Oc3ccccc3)cc2)nn2c1NCC[C@H]2C1CCN(C(=O)c2cn(CCOCCOCCOCCOCCOCCNc3cccc4c3C(=O)N(C3CCC(=O)NC3=O)C4=O)nn2)CC1` (some centres not stated): the DC50 worked out at 78 nM.

Turning to `NC(=O)c1c(-c2ccc(Oc3ccccc3)cc2)nn2c1NCC[C@H]2C1CCN(C(=O)CCN2CCN(C(=O)CNc3ccc4c(c3)C(=O)N(C3CCC(=O)NC3=O)C4=O)CC2)CC1` (some centres not stated), the DC50 was determined as 2.9 nM.

As for `NC(=O)c1c(-c2ccc(Oc3ccccc3)cc2)nn2c1NCC[C@H]2C1CCN(C(=O)CCC2CCC(N3CCN(c4ccc5c(c4)C(=O)N(C4CCC(=O)NC4=O)C5=O)CC3)CC2)CC1` (some centres not stated), the 50% degradation concentration (DC50) came out at 17 nM.

On to `NC(=O)c1c(-c2ccc(Oc3ccccc3)cc2)nn2c1NCC[C@H]2C1CCN(C(=O)c2cn(CCOCCOCC(=O)Nc3ccc4c(c3)C(=O)N(C3CCC(=O)NC3=O)C4=O)nn2)CC1` (some centres not stated), for which the DC50 was 34 nM.
